# Target: T1, ΔF508-CFTR (Homo sapiens, UniProt P13569, DEL508-508)
# T1 construct: Primary lung epithelial cells homozygous for the Cystic Fibrosis-causing ΔF508 mutation were differentiated; endogenous in cells; host or cells: primary human lung/bronchial epithelial cells (hBE) homozygous for ΔF508, differentiated at an air-liquid interface
# Experiment: hBE Equivalent Current (Ieq) Assay
# Format: cell-based
# Settings: Compound A at 3 uM, primary lung epithelial cells homozygous for ΔF508, 24 hours treatment
# Method: ii. hBE Equivalent Current (Ieq) Assay
# Primary lung epithelial cells homozygous for the Cystic Fibrosis-causing ΔF508 mutation were differentiated for a minimum of 4 weeks in an air-liquid interface on Costar 24 well HTS filter plates prior to the equivalent current (Ieq) measurements. Cells were apically mucus-washed for 30 minutes 24 h prior to treatment with compounds. The basolateral media was removed and replaced with media containing the compound of interest diluted to its final concentration from DMSO stocks. Treated cells were incubated at 37° C. and 5% CO2 for 24 hours. At the end of the treatment period, the media was changed to the Ieq experimental solution for 2 hours before the experiment and plates are maintained in a CO2-free incubator during this period. The plates containing the cells were then placed in pre-warmed heating blocks at 36° C.±0.5 for 15 minutes before measurements are taken. The transepithelial voltage (VT) and conductance (GT) were measured using a custom 24 channel current clamp (TECC-24) with 24 well electrode manifold. The Ieq assay measurements were made following additions with standardized time periods:
# 1. The baseline VT and GT values were measured for approximately 20 minutes.
# 2. Benzamil was added to block ENaC for 15 minutes.
# 3. Forskolin plus VX-770 were added to maximally activate ΔF508-CFTR for 27 minutes.
# 4. Bumetanide was added to inhibit the NaK2Cl cotransporter and shut-off secretion of chloride.
# The activity data captured was the area under the curve (AUC) for the traces of the equivalent chloride current. The AUC was collected from the time of the forskolin/VX-770 addition until the inhibition by bumetanide addition. Correction in response to compound treatment was scored as the increase in the AUC for compound-treated samples over that of vehicle-treated samples.
# (+ indicates activity<150% of a CFTR amplifier (Compound A) with compound at concentration shown and Compound A at 3 uM; ++ indicates activity>150% of a CFTR amplifier with compound at concentration shown and Compound A at 3 uM.
# T1 sequence (P13569 with tags, fused parts or gaps DEL508-508): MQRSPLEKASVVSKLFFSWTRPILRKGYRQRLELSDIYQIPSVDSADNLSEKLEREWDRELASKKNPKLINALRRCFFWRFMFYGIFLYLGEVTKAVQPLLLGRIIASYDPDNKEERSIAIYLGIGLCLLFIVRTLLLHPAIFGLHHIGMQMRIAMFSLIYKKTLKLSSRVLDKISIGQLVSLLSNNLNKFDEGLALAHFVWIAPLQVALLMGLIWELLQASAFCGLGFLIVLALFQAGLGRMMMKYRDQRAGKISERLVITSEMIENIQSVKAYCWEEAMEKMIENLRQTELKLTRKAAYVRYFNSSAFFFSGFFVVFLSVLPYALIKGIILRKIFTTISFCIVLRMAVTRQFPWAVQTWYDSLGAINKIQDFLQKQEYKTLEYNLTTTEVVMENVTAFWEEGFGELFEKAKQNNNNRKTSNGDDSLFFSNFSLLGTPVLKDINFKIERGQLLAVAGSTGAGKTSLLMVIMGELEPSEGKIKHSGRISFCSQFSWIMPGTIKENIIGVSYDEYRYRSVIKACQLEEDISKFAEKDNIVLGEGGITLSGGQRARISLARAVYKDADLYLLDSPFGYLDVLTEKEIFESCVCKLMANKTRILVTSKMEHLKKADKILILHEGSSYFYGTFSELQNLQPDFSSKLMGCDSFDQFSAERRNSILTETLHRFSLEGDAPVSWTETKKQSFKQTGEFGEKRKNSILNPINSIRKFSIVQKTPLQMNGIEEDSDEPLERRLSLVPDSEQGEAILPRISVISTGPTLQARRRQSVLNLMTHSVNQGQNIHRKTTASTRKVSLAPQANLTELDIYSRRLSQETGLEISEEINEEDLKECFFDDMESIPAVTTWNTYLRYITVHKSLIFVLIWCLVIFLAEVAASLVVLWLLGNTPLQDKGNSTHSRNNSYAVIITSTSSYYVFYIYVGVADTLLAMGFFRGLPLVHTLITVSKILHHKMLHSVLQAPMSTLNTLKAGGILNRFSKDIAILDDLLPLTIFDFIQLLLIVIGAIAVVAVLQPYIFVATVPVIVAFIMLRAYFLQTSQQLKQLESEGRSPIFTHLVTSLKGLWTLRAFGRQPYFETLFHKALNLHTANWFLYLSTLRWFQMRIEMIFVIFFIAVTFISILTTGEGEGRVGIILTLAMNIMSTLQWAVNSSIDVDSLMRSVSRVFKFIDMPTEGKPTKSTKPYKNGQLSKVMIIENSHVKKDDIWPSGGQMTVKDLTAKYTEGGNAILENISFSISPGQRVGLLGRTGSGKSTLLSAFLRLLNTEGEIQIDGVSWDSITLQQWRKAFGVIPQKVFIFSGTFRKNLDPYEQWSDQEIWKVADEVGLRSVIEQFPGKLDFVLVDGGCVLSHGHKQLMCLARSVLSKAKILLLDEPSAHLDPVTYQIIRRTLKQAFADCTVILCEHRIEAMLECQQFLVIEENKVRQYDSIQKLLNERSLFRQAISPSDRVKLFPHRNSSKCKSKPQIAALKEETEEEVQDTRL
Structure (SMILES),"Activity (AUC of equivalent chloride current, relative to CFTR amplifier Compound A) (compound at 3 μM)","Activity (AUC of equivalent chloride current, relative to CFTR amplifier Compound A) (compound at 10 μM)"
"COc1cccc(-c2ccc(=O)n(C(C)c3nc4ccccc4o3)n2)c1 (stereo not shown) [Compound 1, 2-[1-(1,3-benzoxazol-2-yl)ethyl]-6-(3-methoxyphenyl)-2,3-dihydropyridazin-3-one]",+ (activity<150% of a CFTR amplifier (Compound A) with compound at concentration shown and Compound A at 3 uM),+ (activity<150% of a CFTR amplifier (Compound A) with compound at concentration shown and Compound A at 3 uM)
"COc1cccc(-c2ccc(=O)n(C(C)c3nc4ccccc4[nH]3)n2)c1 (stereo not shown) [Compound 2, 2-[1-(1H-1,3-benzodiazol-2-yl)ethyl]-6-(3-methoxyphenyl)-2,3-dihydropyridazin-3-one]",–,+ (activity<150% of a CFTR amplifier (Compound A) with compound at concentration shown and Compound A at 3 uM)
"COc1cccc(-c2ccc(=O)n(C(C)c3nc4cc(C(F)(F)F)ccc4[nH]3)n2)c1 (stereo not shown) [Compound 3, 6-(3-Methoxyphenyl)-2-(1-(5-(trifluoromethyl)-1H-benzo[d]imidazol-2-yl)ethyl)pyridazin-3(2H)-one]",++ (activity>150% of a CFTR amplifier with compound at concentration shown and Compound A at 3 uM),++ (activity>150% of a CFTR amplifier with compound at concentration shown and Compound A at 3 uM)
"COc1cccc(-c2ccc(=O)n(C(C)c3nc4cc(C(C)(C)C)ccc4[nH]3)n2)c1 (stereo not shown) [Compound 4, 2-(1-(5-(tert-Butyl)-1H-benzo[d]imidazol-2-yl)ethyl)-6-(3-methoxyphenyl)pyridazin-3(2H)-one]",+ (activity<150% of a CFTR amplifier (Compound A) with compound at concentration shown and Compound A at 3 uM),+ (activity<150% of a CFTR amplifier (Compound A) with compound at concentration shown and Compound A at 3 uM)
"COc1cccc(-c2ccc(=O)n(C(C)c3nc4cc(Cl)ccc4[nH]3)n2)c1 (stereo not shown) [Compound 5, 2-(1-(5-Chloro-1H-benzo[d]imidazol-2-yl)ethyl)-6-(3-methoxyphenyl)pyridazin-3(2H)-one]",+ (activity<150% of a CFTR amplifier (Compound A) with compound at concentration shown and Compound A at 3 uM),+ (activity<150% of a CFTR amplifier (Compound A) with compound at concentration shown and Compound A at 3 uM)
"CC(c1nc2cc(C(F)(F)F)ccc2[nH]1)n1nc(-c2cccc(Cl)c2)ccc1=O (stereo not shown) [Compound 6, 6-(3-Chlorophenyl)-2-(1-(5-(trifluoromethyl)-1H-benzo[d]imidazol-2-yl)ethyl)pyridazin-3(2H)-one]",++ (activity>150% of a CFTR amplifier with compound at concentration shown and Compound A at 3 uM),++ (activity>150% of a CFTR amplifier with compound at concentration shown and Compound A at 3 uM)
"COc1cccc(-c2ccc(=O)n(C(C)c3nc4nc(C(F)(F)F)ccc4[nH]3)n2)c1 (stereo not shown) [Compound 7, 6-(3-Methoxyphenyl)-2-(1-(5-(trifluoromethyl)-1H-imidazo[4,5-b]pyridin-2-yl)ethyl)pyridazin-3(2H)-one]",+ (activity<150% of a CFTR amplifier (Compound A) with compound at concentration shown and Compound A at 3 uM),+ (activity<150% of a CFTR amplifier (Compound A) with compound at concentration shown and Compound A at 3 uM)
"COc1cccc(-c2ccc(=O)n(C(C)c3nc4cc(C(F)(F)F)cnc4[nH]3)n2)c1 (stereo not shown) [Compound 8, 6-(3-Methoxyphenyl)-2-(1-(6-(trifluoromethyl)-3H-imidazo[4,5-b]pyridin-2-yl)ethyl)pyridazin-3(2H)-one]",+ (activity<150% of a CFTR amplifier (Compound A) with compound at concentration shown and Compound A at 3 uM),+ (activity<150% of a CFTR amplifier (Compound A) with compound at concentration shown and Compound A at 3 uM)
"COc1cccc(-c2ccc(=O)n(C(C)c3nc4cc(Cl)c(Cl)cc4[nH]3)n2)c1 (stereo not shown) [Compound 9, 2-(1-(5,6-Dichloro-1H-benzo[d]imidazol-2-yl)ethyl)-6-(3-methoxyphenyl)pyridazin-3(2H)-one]",++ (activity>150% of a CFTR amplifier with compound at concentration shown and Compound A at 3 uM),++ (activity>150% of a CFTR amplifier with compound at concentration shown and Compound A at 3 uM)
"CC(c1nc2cc(Cl)c(Cl)cc2[nH]1)n1nc(-c2cccc(Cl)c2)ccc1=O (stereo not shown) [Compound 10, 6-(3-Chlorophenyl)-2-(1-(5,6-dichloro-1H-benzo[d]imidazol-2-yl)ethyl)pyridazin-3(2H)-one]",+ (activity<150% of a CFTR amplifier (Compound A) with compound at concentration shown and Compound A at 3 uM),+ (activity<150% of a CFTR amplifier (Compound A) with compound at concentration shown and Compound A at 3 uM)
"COc1cccc(-c2ccc(=O)n(C(C)c3nnc(-c4ccccc4)[nH]3)n2)c1 (stereo not shown) [Compound 11, 6-(3-Methoxyphenyl)-2-[1-(5-phenyl-4H-1,2,4-triazol-3-yl)ethyl]-2,3-dihydropyridazin-3-one]",–,+ (activity<150% of a CFTR amplifier (Compound A) with compound at concentration shown and Compound A at 3 uM)
"COc1cccc(-c2ccc(=O)n(C(C)c3nnc(-c4ccc(C(F)(F)F)cc4)[nH]3)n2)c1 (stereo not shown) [Compound 12, 6-(3-Methoxyphenyl)-2-(1-(5-(4-(trifluoromethyl)phenyl)-4H-1,2,4-triazol-3-yl)ethyl)pyridazin-3(2H)-one]",–,+ (activity<150% of a CFTR amplifier (Compound A) with compound at concentration shown and Compound A at 3 uM)
"COc1cccc(-c2ccc(=O)n(C(C)c3nnc(-c4cccc(C(F)(F)F)c4)[nH]3)n2)c1 (stereo not shown) [Compound 13, 6-(3-Methoxyphenyl)-2-(1-(5-(3-(trifluoromethyl)phenyl)-4H-1,2,4-triazol-3-yl)ethyl)pyridazin-3(2H)-one]",–,+ (activity<150% of a CFTR amplifier (Compound A) with compound at concentration shown and Compound A at 3 uM)

# From patent publication US20190248765A1, “COMPOUNDS, COMPOSITIONS, AND METHODS FOR INCREASING CFTR ACTIVITY” (Proteostasis Therapeutics, Inc., priority 2016, published 2019)
